The record followed here is PMC7568301, “Characterization and engineering of a two-enzyme system for plastics depolymerization” (Proceedings of the National Academy of Sciences of the …, 2020).

Where a chain is given by its changes, count along the chain named. Names and notes keep the numbering of the source.

Series [1] has as its target T1, MHETase (Pseudideonella sakaiensis, UniProt A0A0K8P8E7).
T1 sequence (A0A0K8P8E7 18-603 limits assumed): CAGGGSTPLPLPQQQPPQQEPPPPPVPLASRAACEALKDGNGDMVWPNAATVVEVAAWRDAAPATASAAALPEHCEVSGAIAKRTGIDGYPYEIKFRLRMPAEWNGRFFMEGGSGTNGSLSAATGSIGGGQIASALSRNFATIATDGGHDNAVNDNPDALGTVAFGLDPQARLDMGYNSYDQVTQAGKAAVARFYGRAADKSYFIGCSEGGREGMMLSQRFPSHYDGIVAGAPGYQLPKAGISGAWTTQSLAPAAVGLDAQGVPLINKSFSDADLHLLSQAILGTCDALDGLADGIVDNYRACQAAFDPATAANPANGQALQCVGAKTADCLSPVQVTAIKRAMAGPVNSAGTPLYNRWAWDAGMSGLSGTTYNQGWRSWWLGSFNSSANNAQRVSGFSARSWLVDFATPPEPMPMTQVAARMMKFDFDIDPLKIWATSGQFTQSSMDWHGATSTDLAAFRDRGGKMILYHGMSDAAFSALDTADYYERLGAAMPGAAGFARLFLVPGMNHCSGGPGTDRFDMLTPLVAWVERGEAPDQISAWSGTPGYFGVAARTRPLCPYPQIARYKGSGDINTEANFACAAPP
The series is described as follows: X-ray crystallography, […] Å. In kind it is binding. Conditions: active site; fully occupied in 6QZ3, partially occupied in 6QZ1. Also on record: gene ISF6_0224; pET21b(+)-based expression in E. coli, purified; residue borders and tags only in SI; catalytic triad Ser225, Asp492, His528.

The subject of series [2] is T2, C. thiooxydans homolog.
T2 construct: gene MHETase homolog; Gly179 at the position of MHETase Ser131
The series is described as follows: HPLC hydrolysis assay, initial velocities, substrate inhibition model fit. In kind it is biochemical, Comamonas thiooxydans. Conditions: substrate inhibition constant. The text has this:
HPLC hydrolysis assay, initial velocities, substrate inhibition model fit on C. thiooxydans homolog | MHETase and both homologs also display this behavior

The subject of series [3] is T3, C. thiooxydans homolog.
T3 construct: gene MHETase homolog
Conditions: substrate inhibition model.

In series [4] the target is T1, MHETase. The series is described as follows: HPLC hydrolysis assay, initial velocities, substrate inhibition model fit. In kind it is biochemical. Also on record: gene ISF6_0224; pET21b(+)-based expression in E. coli, purified; residue borders and tags only in SI; catalytic triad Ser225, Asp492, His528. Conditions: substrate inhibition constant. The text has this:
HPLC hydrolysis assay, initial velocities, substrate inhibition model fit on MHETase | MHETase is also the most susceptible to substrate inhibition with a Kk value of […]

Substrate in series [5]: O=C(O)c1ccc(C(=O)OCCO)cc1
The experiment in a line: HPLC hydrolysis assay, initial velocities, simple Michaelis-Menten fit. Conditions: simple Michaelis-Menten model. The format is biochemical, Pseudideonella sakaiensis. From the text: HPLC hydrolysis assay, initial velocities, simple Michaelis-Menten fit on MHETase | The S131G mutant has a Km value approximately eightfold higher than that of wild-type MHETase

Broadly, the Km is the substrate concentration at which the rate is half of its maximum.

On to `O=C(O)c1ccccc1` [benzoate], for which, in series [1], the “X-ray crystallography, 1.6 Å” value is “one structure with a fully occupied benzoic acid ligand (6QZ3)”.
Take `O=C(O)c1ccc(C(=O)OCCO)cc1` [MHET]: the Kk in series [2] came out at 78.80 ± 3.04 µM; in series [4], 307.30 ± 20.65 µM. In series [3], the Km came to 175 ± 4.75 µM.

B1: MHETase (Pseudideonella sakaiensis; S131G) (protein)
chain: T1 sequence (A0A0K8P8E7 18-603 limits assumed) with S114G
notes: pET21b(+)-based expression in E. coli, purified; residue borders and tags only in SI; catalytic triad Ser225, Asp492, His528
As to B1, in series [5], the Km was 184.10 ± 3.50 µM.
